Assay: Quantification of garlic-derived metabolites in human urine after ingestion of 3 g raw garlic (SIDA, SAFE, HRGC-MS / HRGC-GC-MS)
Format: in vivo
Conditions: for metabolite concentration in urine / metabolite concentration in urine, creatinine-normalized: 3 g raw garlic
Summary of the method: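 Quantification used stable isotope dilution (²H3-AMS, -AMSO, -AMSO2 standards), SAFE distillation at 50°C of DCM-treated urine, and GC-MS on a DB-FFAP column, with creatinine from the Jaffé reaction at 492 nm. Urine came from 18 volunteers avoiding sulfur-rich foods, sampled before and up to 24 h after eating 3 g raw garlic.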

## C=CC[S+](C)[O-] (stereo not shown) [AMSO, allyl methyl sulfoxide]
3 g raw garlic in both studies, milk data ref 20
  concentration in urine compared with human milk: about three times as high
U I, 0.5 h post (0.55 h)
  metabolite concentration in urine: 168.4 µg/kg
  metabolite concentration in urine, creatinine-normalized: 23.6 µg/mmol creatinine
U I, 1 h post (1.03 h)
  metabolite concentration in urine: 191.0 µg/kg
  metabolite concentration in urine, creatinine-normalized: 205.9 µg/mmol creatinine
U I, 2 h post (2.05 h)
  metabolite concentration in urine: 227.6 µg/kg
  metabolite concentration in urine, creatinine-normalized: 112.5 µg/mmol creatinine
U I, 4 h post (4.05 h)
  metabolite concentration in urine: 165.7 µg/kg
  metabolite concentration in urine, creatinine-normalized: 19.1 µg/mmol creatinine
U I, 6 h post (6.05 h)
  metabolite concentration in urine: 119.1 µg/kg
  metabolite concentration in urine, creatinine-normalized: 13.2 µg/mmol creatinine
U I, 8 h post (8.05 h)
  metabolite concentration in urine: 41.8 µg/kg
  metabolite concentration in urine, creatinine-normalized: 5.8 µg/mmol creatinine
U I, 24 h post (25.55 h)
  metabolite concentration in urine: 1.6 µg/kg
  metabolite concentration in urine, creatinine-normalized: 0.3 µg/mmol creatinine
U I, pre (-0.03 h)
  metabolite concentration in urine: < LOD^2
  metabolite concentration in urine, creatinine-normalized: < LOD^2
U II, 0.5 h post (0.50 h)
  metabolite concentration in urine: 147.7 µg/kg
  metabolite concentration in urine, creatinine-normalized: 14.0 µg/mmol creatinine
U II, 1 h post (1.00 h)
  metabolite concentration in urine: 133.4 µg/kg
  metabolite concentration in urine, creatinine-normalized: 51.2 µg/mmol creatinine
U II, 2 h post (2.00 h)
  metabolite concentration in urine: 63.7 µg/kg
  metabolite concentration in urine, creatinine-normalized: 62.6 µg/mmol creatinine
U II, 4 h post (4.00 h)
  metabolite concentration in urine: 64.8 µg/kg
  metabolite concentration in urine, creatinine-normalized: 12.0 µg/mmol creatinine
U II, 6 h post (6.00 h)
  metabolite concentration in urine: 33.4 µg/kg
  metabolite concentration in urine, creatinine-normalized: 3.7 µg/mmol creatinine
U II, 8 h post (8.00 h)
  metabolite concentration in urine: 15.2 µg/kg
  metabolite concentration in urine, creatinine-normalized: 1.8 µg/mmol creatinine
U II, 24 h post (24.12 h)
  metabolite concentration in urine: traces^2
  metabolite concentration in urine, creatinine-normalized: traces^2
U II, pre (-0.13 h)
  metabolite concentration in urine: < LOD^2
  metabolite concentration in urine, creatinine-normalized: < LOD^2
U III, 0.5 h post (0.53 h)
  metabolite concentration in urine: 124.4 µg/kg
  metabolite concentration in urine, creatinine-normalized: 74.5 µg/mmol creatinine
U III, 1 h post (1.07 h)
  metabolite concentration in urine: 136.4 µg/kg
  metabolite concentration in urine, creatinine-normalized: 192.7 µg/mmol creatinine
U III, 2 h post (2.18 h)
  metabolite concentration in urine: 214.7 µg/kg
  metabolite concentration in urine, creatinine-normalized: 133.1 µg/mmol creatinine
U III, 4 h post (4.35 h)
  metabolite concentration in urine: 123.7 µg/kg
  metabolite concentration in urine, creatinine-normalized: 47.0 µg/mmol creatinine
U III, 6 h post (6.35 h)
  metabolite concentration in urine: 62.3 µg/kg
  metabolite concentration in urine, creatinine-normalized: 12.2 µg/mmol creatinine
U III, 8 h post (8.43 h)
  metabolite concentration in urine: 29.0 µg/kg
  metabolite concentration in urine, creatinine-normalized: 5.2 µg/mmol creatinine
U III, 24 h post (23.90 h)
  metabolite concentration in urine: 3.0 µg/kg
  metabolite concentration in urine, creatinine-normalized: 0.5 µg/mmol creatinine
U III, pre (-0.03 h)
  metabolite concentration in urine: 4.6 µg/kg
  metabolite concentration in urine, creatinine-normalized: 0.8 µg/mmol creatinine
U IV, 0.5 h post (0.55 h)
  metabolite concentration in urine: 144.3 µg/kg
  metabolite concentration in urine, creatinine-normalized: 30.7 µg/mmol creatinine
U IV, 1 h post (1.05 h)
  metabolite concentration in urine: 141.0 µg/kg
  metabolite concentration in urine, creatinine-normalized: 117.5 µg/mmol creatinine
U IV, 2 h post (2.12 h)
  metabolite concentration in urine: 129.7 µg/kg
  metabolite concentration in urine, creatinine-normalized: 82.3 µg/mmol creatinine
U IV, 4 h post (4.05 h)
  metabolite concentration in urine: 108.9 µg/kg
  metabolite concentration in urine, creatinine-normalized: 22.6 µg/mmol creatinine
U IV, 6 h post (6.08 h)
  metabolite concentration in urine: 63.5 µg/kg
  metabolite concentration in urine, creatinine-normalized: 4.6 µg/mmol creatinine
U IV, 8 h post (8.05 h)
  metabolite concentration in urine: 31.9 µg/kg
  metabolite concentration in urine, creatinine-normalized: 6.7 µg/mmol creatinine
U IV, 24 h post (24.03 h)
  metabolite concentration in urine: 3.8 µg/kg
  metabolite concentration in urine, creatinine-normalized: 0.4 µg/mmol creatinine
U IV, pre (-0.05 h)
  metabolite concentration in urine: < LOD^2
  metabolite concentration in urine, creatinine-normalized: < LOD^2
U IX, 0.5 h post (0.67 h)
  metabolite concentration in urine: 164.4 µg/kg
  metabolite concentration in urine, creatinine-normalized: 156.1 µg/mmol creatinine
U IX, 1 h post (1.17 h)
  metabolite concentration in urine: 332.3 µg/kg
  metabolite concentration in urine, creatinine-normalized: 344.1 µg/mmol creatinine
U IX, 2 h post (1.83 h)
  metabolite concentration in urine: 337.6 µg/kg
  metabolite concentration in urine, creatinine-normalized: 320.5 µg/mmol creatinine
U IX, 4 h post (4.17 h)
  metabolite concentration in urine: 293.5 µg/kg
  metabolite concentration in urine, creatinine-normalized: 56.6 µg/mmol creatinine
U IX, 6 h post (6.08 h)
  metabolite concentration in urine: 182.9 µg/kg
  metabolite concentration in urine, creatinine-normalized: 57.5 µg/mmol creatinine
U IX, 8 h post (8.08 h)
  metabolite concentration in urine: 100.1 µg/kg
  metabolite concentration in urine, creatinine-normalized: 7.2 µg/mmol creatinine
U IX, 24 h post (24.00 h)
  metabolite concentration in urine: 30.4 µg/kg
  metabolite concentration in urine, creatinine-normalized: 3.5 µg/mmol creatinine
U IX, pre (-0.08 h)
  metabolite concentration in urine: < LOD^2
  metabolite concentration in urine, creatinine-normalized: < LOD^2
U V, 0.5 h post (0.50 h)
  metabolite concentration in urine: 84.4 µg/kg
  metabolite concentration in urine, creatinine-normalized: 123.5 µg/mmol creatinine
U V, 1 h post (1.00 h)
  metabolite concentration in urine: 122.6 µg/kg
  metabolite concentration in urine, creatinine-normalized: 146.3 µg/mmol creatinine
U V, 2 h post (2.00 h)
  metabolite concentration in urine: 104.6 µg/kg
  metabolite concentration in urine, creatinine-normalized: 124.9 µg/mmol creatinine
U V, 4 h post (4.00 h)
  metabolite concentration in urine: 104.9 µg/kg
  metabolite concentration in urine, creatinine-normalized: 34.0 µg/mmol creatinine
U V, 6 h post (6.00 h)
  metabolite concentration in urine: 68.8 µg/kg
  metabolite concentration in urine, creatinine-normalized: 13.8 µg/mmol creatinine
U V, 8 h post (8.00 h)
  metabolite concentration in urine: 29.0 µg/kg
  metabolite concentration in urine, creatinine-normalized: 13.4 µg/mmol creatinine
U V, 24 h post (24.00 h)
  metabolite concentration in urine: 1.9 µg/kg
  metabolite concentration in urine, creatinine-normalized: 0.3 µg/mmol creatinine
U V, pre (-0.05 h)
  metabolite concentration in urine: < LOD^2
  metabolite concentration in urine, creatinine-normalized: < LOD^2
U VI, 0.5 h post (0.50 h)
  metabolite concentration in urine: 193.1 µg/kg
  metabolite concentration in urine, creatinine-normalized: 88.3 µg/mmol creatinine
U VI, 1 h post (1.00 h)
  metabolite concentration in urine: 203.5 µg/kg
  metabolite concentration in urine, creatinine-normalized: 169.6 µg/mmol creatinine
U VI, 2 h post (2.00 h)
  metabolite concentration in urine: 143.4 µg/kg
  metabolite concentration in urine, creatinine-normalized: 129.2 µg/mmol creatinine
U VI, 4 h post (4.00 h)
  metabolite concentration in urine: 134.9 µg/kg
  metabolite concentration in urine, creatinine-normalized: 39.0 µg/mmol creatinine
U VI, 6 h post (6.00 h)
  metabolite concentration in urine: 188.9 µg/kg
  metabolite concentration in urine, creatinine-normalized: 35.0 µg/mmol creatinine
U VI, 8 h post (8.00 h)
  metabolite concentration in urine: 79.0 µg/kg
  metabolite concentration in urine, creatinine-normalized: 15.8 µg/mmol creatinine
U VI, 24 h post (24.17 h)
  metabolite concentration in urine: 139.8 µg/kg
  metabolite concentration in urine, creatinine-normalized: 9.6 µg/mmol creatinine
U VI, pre (-0.05 h)
  metabolite concentration in urine: < LOD^2
  metabolite concentration in urine, creatinine-normalized: < LOD^2
U VII, 0.5 h post (0.50 h)
  metabolite concentration in urine: 133.2 µg/kg
  metabolite concentration in urine, creatinine-normalized: 125.0 µg/mmol creatinine

— PMC6499206, “Quantification of Volatile Metabolites Derived From Garlic (Allium sativum) in Human Urine” (Frontiers in Nutrition, 2019)
